Assay results published in ChEMBL document CHEMBL1201862, “PubChem BioAssay data set” (2004).
Calls of active or inactive are those of the source.

Assays:
[1] = P. falciparum Dd2 growth inhibitors, dose response, SYBR Green, cherry-picked samples (AID 1159567); assay type: functional, cell-based
[2] = toxicity to human hepatoma HepG2 cells – cell-based, cherry-picked samples, cytotoxicity control, dose response (AID 1159577); assay type: functional
[3] = molecular target: Prothrombin (Homo sapiens, UniProt P00734); test: Thrombin 1536 HTS Dose Response Confirmation. [Related pubchem assays: 1046 (Thrombin 1536 HTS; hits were confirmed in this assay)]; assay type: functional
[4] = growth inhibition of PfATP4-mutant resistant parasites – NITD609-resistant line, SYBR Green, dry powder, dose response (AID 1159571); assay type: functional, cell-based;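 further: parasites synchronized at ring stage by sorbitol before testing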
[5] = growth inhibition of yeast DHODH-expressing 3D7 parasites – SYBR Green, dry powder samples, dose response (AID 1159570); assay type: functional, cell-based;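 further: parasite growth measured after 72 hours of compound exposure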
[6] = Dd2 malaria parasite growth inhibition potency – SYBR Green, dry powder samples, dose response (AID 1159566); assay type: functional, cell-based;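 further: potency for growth inhibition with lower SYBR green DNA signal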
[7] = toxicity to human HepG2 hepatoma cells – cell-based, plate reader, dry powder samples, cytotoxicity control, dose response (AID 1159569); assay type: functional;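 further: inhibitor potency with signal falling toward the positive control level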
[8] = test system: Vero; test: cells; assay type: functional; conditions: Chlorocebus sabaeus
[9] = molecular target: Paired box protein Pax-8 (Homo sapiens, UniProt Q06710); test: PAX8 transcriptional activity inhibition in RMG-I – RMG-I cells, luciferase, cherry-pick, dose response (AID 687027); assay type: functional, cell-based;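 further: luciferase reporter driven by Pax8 target thyroperoxidase promoter measured by SteadyGlo luminescence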
[10] = test system: Vero; test: cells; assay type: functional, cell-based; conditions: Chlorocebus sabaeus
[11] = molecular target: T1, Hepatocyte nuclear factor 4-alpha (Homo sapiens, UniProt P41235); assay type: functional, cell-based;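 further: biochemical luminescence-based dose-response counterscreen measuring inhibition of HNF4 dimerization, run alongside a screen for blockers of ABHD5–perilipin-5 interaction; split luciferase complementation of HNF4 fusion proteins in cell lysate measuring dimerization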
T1 sequence (P41235 whole entry): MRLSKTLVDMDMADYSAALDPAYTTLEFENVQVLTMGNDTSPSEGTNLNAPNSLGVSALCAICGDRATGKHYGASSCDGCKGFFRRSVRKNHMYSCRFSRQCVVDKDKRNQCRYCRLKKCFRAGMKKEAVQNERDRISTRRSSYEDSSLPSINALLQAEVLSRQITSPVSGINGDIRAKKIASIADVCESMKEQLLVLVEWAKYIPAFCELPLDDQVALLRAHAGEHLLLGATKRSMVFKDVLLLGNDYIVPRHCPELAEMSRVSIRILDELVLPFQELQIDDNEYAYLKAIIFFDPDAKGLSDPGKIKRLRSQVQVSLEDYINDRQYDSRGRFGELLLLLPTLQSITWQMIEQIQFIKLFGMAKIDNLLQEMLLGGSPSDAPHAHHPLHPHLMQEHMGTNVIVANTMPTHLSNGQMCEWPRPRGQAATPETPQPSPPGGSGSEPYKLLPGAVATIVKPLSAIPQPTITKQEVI

[12] = molecular target: T2, Calpain-2 catalytic subunit (Sus scrofa, UniProt P43367); test: m-calpain protease blockers, concentration series – biochemical, fluorogenic peptide substrate, dose response (AID 1420); assay type: functional
T2 sequence (P43367 whole entry): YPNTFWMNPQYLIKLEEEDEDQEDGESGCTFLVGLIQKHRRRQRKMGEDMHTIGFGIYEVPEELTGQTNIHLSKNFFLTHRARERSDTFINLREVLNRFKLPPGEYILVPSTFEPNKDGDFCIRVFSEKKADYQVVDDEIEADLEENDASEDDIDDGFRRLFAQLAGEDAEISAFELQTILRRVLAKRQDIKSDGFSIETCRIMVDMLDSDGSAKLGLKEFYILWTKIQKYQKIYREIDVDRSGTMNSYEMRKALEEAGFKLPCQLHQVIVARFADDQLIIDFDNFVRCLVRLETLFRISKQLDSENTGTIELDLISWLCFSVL

[13] = viability of uninfected HEp-2 cells – cell-based, HTS, cytotoxicity control for RSV inhibitor project, dose response (AID 2410); assay type: functional; conditions: human respiratory syncytial virus
[14] = molecular target: Genome polyprotein (dengue virus type 2, UniProt P29990); test: flavivirus cap methylation enzyme inhibition – biochemical, confirmation dose response, primary screen (AID 588689); assay type: functional
[15] = molecular target: T3, Protein skinhead-1 (Caenorhabditis elegans, UniProt P34707); assay type: functional
T3 sequence (P34707 whole entry): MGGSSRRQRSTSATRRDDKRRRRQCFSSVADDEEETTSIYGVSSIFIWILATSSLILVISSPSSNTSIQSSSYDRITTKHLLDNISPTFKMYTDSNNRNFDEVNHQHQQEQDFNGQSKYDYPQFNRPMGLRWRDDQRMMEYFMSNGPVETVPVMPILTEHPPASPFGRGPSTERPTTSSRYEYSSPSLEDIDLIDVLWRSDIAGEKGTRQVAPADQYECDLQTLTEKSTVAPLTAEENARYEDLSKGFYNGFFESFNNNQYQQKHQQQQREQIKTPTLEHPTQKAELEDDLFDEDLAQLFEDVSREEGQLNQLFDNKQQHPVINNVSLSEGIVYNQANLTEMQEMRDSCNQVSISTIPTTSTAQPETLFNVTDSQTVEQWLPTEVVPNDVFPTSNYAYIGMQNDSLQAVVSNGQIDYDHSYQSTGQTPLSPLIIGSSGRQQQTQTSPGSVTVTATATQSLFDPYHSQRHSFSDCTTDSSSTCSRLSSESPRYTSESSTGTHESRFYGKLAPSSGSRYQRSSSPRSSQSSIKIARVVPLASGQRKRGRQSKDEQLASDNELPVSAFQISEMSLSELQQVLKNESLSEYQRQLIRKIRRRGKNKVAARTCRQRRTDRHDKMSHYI

[16] = loss of viability in HepG2 cells – cell-based, CellTiter-Glo, cherry-picked, cytotoxicity control for Shn3 inhibitor project, dose response (AID 624134); assay type: functional
[17] = NIH-3T3 fibroblast cytotoxicity, dose response, cytotoxicity control, cell-based, fluorescence, Alamar Blue, secondary assay (AID 2327); assay type: functional;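 further: NIH-3T3 mouse fibroblasts cultured with fluconazole at 8 µg/mL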
[18] = fluconazole-exposed Candida albicans growth modulators – fluorescence, retest, confirmation (AID 2467); assay type: functional, cell-based
[19] = non-specific 3'UTR reporter inhibition in Clone20-Shn3RL – cell-based, Renilla luciferase, cherry-picked, counter-screen for Shn3 inhibitor project, dose response (AID 624133); assay type: functional
[20] = molecular target: T4, Heat shock factor protein 1 (Mus musculus, UniProt P38532); test: decrease of HSF1-responsive luciferase luminescence – cell-based, NIH3T3, dose retest, confirmation (AID 2382); assay type: functional;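 further: NIH3T3 fibroblasts with HSF1-driven luciferase reporter stressed by proteasome inhibitor MG132; luminescence from HSF1-driven luciferase expression after 8 hours of MG132 stress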
T4 sequence (P38532 whole entry): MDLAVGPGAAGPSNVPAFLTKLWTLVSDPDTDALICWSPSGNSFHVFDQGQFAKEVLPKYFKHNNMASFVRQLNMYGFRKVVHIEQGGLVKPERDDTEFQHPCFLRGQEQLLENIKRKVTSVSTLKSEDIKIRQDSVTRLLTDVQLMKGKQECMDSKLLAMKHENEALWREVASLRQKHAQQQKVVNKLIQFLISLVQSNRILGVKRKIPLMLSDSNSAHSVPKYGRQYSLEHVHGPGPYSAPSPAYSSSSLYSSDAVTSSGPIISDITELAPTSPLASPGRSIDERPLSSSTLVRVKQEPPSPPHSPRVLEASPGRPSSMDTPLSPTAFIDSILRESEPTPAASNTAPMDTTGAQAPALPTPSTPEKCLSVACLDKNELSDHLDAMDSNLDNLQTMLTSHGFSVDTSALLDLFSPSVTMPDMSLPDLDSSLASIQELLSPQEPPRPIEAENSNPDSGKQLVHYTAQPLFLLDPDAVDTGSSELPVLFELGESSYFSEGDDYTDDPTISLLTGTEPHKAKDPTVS

[21] = NIH3T3 cell viability loss – ATP luminescence, mouse fibroblasts, counter-screen, dose response (AID 2010); assay type: functional, cell-based;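 further: cells exposed to compound for about 90 hours before reading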
[22] = Trypanosoma cruzi growth suppression in host cells – NIH3T3 host cells, beta-gal luminescence, confirmation (AID 2044); assay type: functional, cell-based;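 further: intracellular parasites grown in NIH/3T3 mouse fibroblasts as host cells; luminescent beta-galactosidase reporter signal from transgenic T. cruzi replicating inside host cells; inhibitors lower the luminescence signal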
[23] = general cell-killing toxicity readout – plate reader, dry powder samples, cytotoxicity control for PAX8 inhibitor project, dose response (AID 743021); assay type: functional, cell-based
[24] = reduction of Shn3 3'UTR-driven luciferase in osteoblasts – cell-based, Clone20 osteoblasts, firefly luciferase, cherry-picked, dose response (AID 624132); assay type: functional;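 further: firefly luciferase luminescence from reporter carrying the Shn3 3'UTR in osteoblasts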
[25] = molecular target: Voltage-dependent T-type calcium channel subunit alpha-1H (Homo sapiens, UniProt O95180); assay type: functional;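 further: channel activity triggered by adding a high calcium stimulation buffer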

In the case of CO[C@@H]1CN(C)C(=O)c2cc(NC(=O)c3nc4ccccc4s3)ccc2OC[C@@H](C)N(Cc2ccncc2)C[C@H]1C, the AC50 [1] is reported as 5.88 µM (active) and the AC50 [2] is reported as 24.5 µM (active).

In the case of Nc1nc(-c2ccco2)nn1C(=O)c1cccnc1, the IC50 [3] is reported as 0.589 µM (active).

With CCCN1CCC2(CC1)CN(Cc1ccccc1OC)[C@H](CO)c1c2c2ccc(OC)cc2n1C the AC50 [1] was 2.22 µM (active), the AC50 [4] was 0.888 µM (active) and the AC50 [2] was > 39 µM (inactive). The AC50 [5] was 1.49 µM (active), the AC50 [6] was 0.681 µM (active) and the AC50 [7] was 25.7 µM (active).

For C#CCN(C[C@@H]1[C@@H](OC(=O)Nc2cccs2)[C@@H](OC(=O)Nc2cccs2)Cn2c(=O)ccc(=O)n21)S(=O)(=O)c1ccc(C)cc1, the CC50 [8] was > 25 µM (active), the AC50 [9] was 4.22 µM (active) and the IC50 [10] was 23.3 µM (active). For the same molecule, the IC50 [11] was 5.6 µM (active).

With COc1ccc(Cl)cc1N(CC(=O)NC(C)(C)C)S(=O)(=O)c1ccc(C)c([N+](=O)[O-])c1 the IC50 [12] was 12.7 µM (not active).

In the case of O=C1/C(=C/c2cccnc2)CC/C1=C\c1cccnc1, the IC50 [11] is reported as 7.46 µM (active) and the CC50 [13] is reported as 27.2 µM (active).

In the case of Cc1c(C(=O)N2c3ccccc3Sc3ccccc32)cccc1[N+](=O)[O-], the IC50 [12] is reported as 2.4 µM (not active).

In the case of COc1cccc(C#Cc2ccc([C@@H]3[C@@H](CO)N4C(=O)CN(C(=O)c5ccccc5)C[C@@H]34)cc2)c1, the AC50 [1] is reported as 2.3 µM (active), the AC50 [4] is reported as 1.53 µM (active) and the AC50 [2] is reported as > 39 µM (inactive). The AC50 [5] was 2.23 µM (active) and the AC50 [6] was 1.19 µM (active).

In the case of Cc1ccc(C(=O)C2=C(O)C(=O)OC2c2ccc(Cl)cc2)cc1 (centres undefined), the IC50 [14] is reported as 60.8 µM (active) and the IC50 [11] is reported as 8.81 µM (active).

In the case of NC(=NOC(=O)c1cccc(Cl)c1)c1cccnc1, the IC50 [15] is reported as 86.4 µM (inactive) and the IC50 [3] is reported as > 50 µM (not active).

For CCOC(=O)Cn1c(=O)oc2cc(S(=O)(=O)NCCc3ccc(C)cc3)ccc21, the IC50 [3] was > 50 µM (not active).

In the case of COc1ccc2c3c(n(C)c2c1)[C@@H](CO)N(C(=O)CN(C)C)CC31CCN(Cc2cccnc2)CC1, the AC50 [1] is reported as 2.9 µM (active), the AC50 [4] is reported as 4.01 µM (active) and the AC50 [2] is reported as > 39 µM (inactive). The AC50 [5] was 2.3 µM (active), the AC50 [6] was 2.61 µM (active) and the AC50 [7] was 64.4 µM (active).

For CCCC(=O)n1nc(-c2ccc(C)cc2)nc1NCc1ccco1, the IC50 [3] was 11.1 µM (active).

For Cc1ccc(S(=O)(=O)c2ncccc2[N+](=O)[O-])cc1, the AC50 [16] was 30.2 µM (active), the EC50 [17] was 4.37 µM (inconclusive) and the EC50 [18] was 2.73 µM (active). The AC50 [19] was 6.47 µM (active), the EC50 [20] was 3.92 µM (active) and the AC50 [9] was 8.34 µM (active). For the same molecule, the EC50 [21] was 2.85 µM (active), the EC50 [22] was 2.96 µM (active) and the AC50 [23] was 23.6 µM (active). The AC50 [24] was 1.91 µM (active).

In the case of CCN(CC)CCC(C)OC(c1ccccc1)c1ccccc1 (centres undefined), the IC50 [11] is reported as 20.7 µM (inactive).

With O=C(CC1S/C(=N\c2cccc3ccccc23)N(Cc2ccccn2)C1=O)Nc1ccccc1Br (centres undefined) the AC50 [9] was 15.4 µM (active) and the AC50 [23] was 67.5 µM (active).

In the case of Cc1cccc(-c2ccc([C@@H]3[C@H](CO)N4CCCCN(S(=O)(=O)c5ccccc5C)C[C@@H]34)cc2)c1, the AC50 [1] is reported as 0.845 µM (active) and the AC50 [2] is reported as 9.3 µM (active).

In the case of Cc1cccc(C)c1NC(=O)C(c1ccccc1F)n1c(=O)c(-c2ccco2)nc2ccccc21 (centres undefined), the IC50 [11] is reported as 2.48 µM (active).

With O=C(Nc1ccccc1)N1CCCCN2[C@H](CO)[C@H](c3ccc(C#Cc4ccccc4)cc3)[C@@H]2C1 the AC50 [1] was < 0.3 µM (active), the AC50 [4] was 0.0386 µM (active) and the AC50 [5] was 0.0378 µM (active). The AC50 [6] was 0.0425 µM (active) and the AC50 [7] was > 100 µM (inactive).

For COc1ccc(C(=O)N(Cc2nc(-c3ccc(C)cc3)no2)C2CCCCC2)cc1OC, the EC50 [25] was 8.02 µM (active) and the IC50 [12] was 10.8 µM (not active).

For COc1ccccc1N1CCN(CC(O)COc2ccc3c(c2)OCO3)CC1 (centres undefined), the IC50 [12] was > 50 µM (not active).

In the case of CCN(CC)C(=O)Cn1cc(C(=O)C(=O)NCCCn2ccnc2)c2ccccc21, the IC50 [3] is reported as > 50 µM (not active).
